# Measurements reported in ChEMBL document CHEMBL1146903, “Modification of the clozapine structure by parallel synthesis” (Bioorg Med Chem Lett, 2006).
# What was measured:
# [1] = molecular target: D(1A) dopamine receptor (Homo sapiens, UniProt P21728); experiment: Displacement of [3H]SCH 23390 from dopamine D1 receptor expressed in CHO cells; format: cell-based
# [2] = molecular target: D(2) dopamine receptor (Homo sapiens, UniProt P14416); experiment: Displacement of [3H]methylspiperone from dopamine D2 receptor expressed in CHO cells; format: cell-based
# Chain of D(2) dopamine receptor (P14416 whole entry): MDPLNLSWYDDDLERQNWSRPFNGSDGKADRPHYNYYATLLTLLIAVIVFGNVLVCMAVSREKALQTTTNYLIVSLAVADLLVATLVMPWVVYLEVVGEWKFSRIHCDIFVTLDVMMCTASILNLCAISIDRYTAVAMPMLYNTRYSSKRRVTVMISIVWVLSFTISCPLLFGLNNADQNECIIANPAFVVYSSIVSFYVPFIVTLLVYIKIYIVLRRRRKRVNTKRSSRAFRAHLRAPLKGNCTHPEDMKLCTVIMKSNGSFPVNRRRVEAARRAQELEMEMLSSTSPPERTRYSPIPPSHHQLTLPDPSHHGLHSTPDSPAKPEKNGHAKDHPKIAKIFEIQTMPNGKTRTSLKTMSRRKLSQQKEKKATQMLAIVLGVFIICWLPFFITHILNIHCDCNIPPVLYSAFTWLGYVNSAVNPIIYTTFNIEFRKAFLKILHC
# Chain of D(1A) dopamine receptor (P21728 whole entry): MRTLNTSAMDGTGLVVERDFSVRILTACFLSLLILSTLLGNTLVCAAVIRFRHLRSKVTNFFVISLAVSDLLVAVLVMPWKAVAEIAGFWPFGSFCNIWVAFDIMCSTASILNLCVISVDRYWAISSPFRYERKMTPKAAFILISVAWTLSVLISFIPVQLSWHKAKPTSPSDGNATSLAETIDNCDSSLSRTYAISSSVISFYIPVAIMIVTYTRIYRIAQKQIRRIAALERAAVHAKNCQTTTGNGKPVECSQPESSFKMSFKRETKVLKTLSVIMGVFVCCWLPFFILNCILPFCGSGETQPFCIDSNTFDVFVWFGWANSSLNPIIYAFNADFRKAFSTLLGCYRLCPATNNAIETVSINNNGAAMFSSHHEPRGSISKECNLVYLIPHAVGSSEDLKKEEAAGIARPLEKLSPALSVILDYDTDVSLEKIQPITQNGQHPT
Compound,Ki [1] [µM],Ki [2] [µM]
FC(F)(F)Oc1cccc(CN2CCN(C3=Nc4cc(Cl)ccc4Nc4ccccc43)CC2)c1,3.8,0.0034
CCN1CCN(C2=Nc3cc(Cl)ccc3N(NC(=O)c3ccccc3Cl)c3ccccc32)CC1,0.054,0.709
COc1ccc(C(=O)NN2c3ccc(Cl)cc3N=C(N3CCN(C)CC3)c3ccccc32)cc1,,> 3
CN1CCN(C2=Nc3cc(Cl)ccc3N(NC(=O)c3cccnc3)c3ccccc32)CC1,0.085,12.7
O=C(NN1c2ccc(Cl)cc2N=C(N2CCN(CC3CCCCC3)CC2)c2ccccc21)c1ccccc1Cl,0.294,> 3
O=C(NN1c2ccc(Cl)cc2N=C(N2CCN(Cc3cccc4c3OCO4)CC2)c2ccccc21)c1ccccc1Cl,0.571,> 2
COc1cc(C(=O)NN2c3ccccc3N=C(N3CCN(C)CC3)c3cc(Cl)ccc32)cc(OC)c1OC,0.02,3.23
Cc1ccccc1S(=O)(=O)N1c2ccc(Cl)cc2N=C(N2CCN(C)CC2)c2ccccc21,0.071,0.063
O=C(NN1c2ccc(Cl)cc2N=C(N2CCN(Cc3ccc(F)cc3F)CC2)c2ccccc21)c1ccccc1Cl,0.886,> 3
CN1CCN(C2=Nc3cc(Cl)ccc3N(NC(=O)c3ccccc3Br)c3ccccc32)CC1,0.016,0.792
Cc1ccc(CN2CCN(C3=Nc4cc(Cl)ccc4Nc4ccccc43)CC2)c(C)c1,0.482,0.065
CN1CCN(C2=Nc3cc(Cl)ccc3N(NC(=O)c3cc(F)ccc3C(F)(F)F)c3ccc(Cl)cc32)CC1,0.024,0.069
Cc1ccccc1C(=O)N1c2ccc(Cl)cc2N=C(N2CCN(C)CC2)c2ccccc21,1.23,4.93
CN1CCN(C2=Nc3cc(Cl)ccc3N(NC(=O)c3ccc(C#N)cc3)c3ccc(Cl)cc32)CC1,0.051,0.194
O=C(NN1c2ccc(Cl)cc2N=C(N2CCN(Cc3cccc(OC(F)(F)F)c3)CC2)c2ccccc21)c1ccccc1Cl,2.57,> 3
O=C(NN1c2ccc(Cl)cc2N=C(N2CCN(Cc3ccc4c(c3)OCCO4)CC2)c2ccccc21)c1ccccc1Cl,0.238,> 2
COc1ccccc1C(=O)NN1c2ccc(Cl)cc2N=C(N2CCN(C)CC2)c2ccccc21,0.013,1.13
CC(C)N1CCN(C2=Nc3cc(Cl)ccc3N(NC(=O)c3ccccc3Cl)c3ccccc32)CC1,0.191,0.998
O=C(NN1c2ccc(Cl)cc2N=C(N2CCN(Cc3cccc4c3OC(F)(F)O4)CC2)c2ccccc21)c1ccccc1Cl,4.75,> 3
COc1cc(C(=O)NN2c3ccc(Cl)cc3N=C(N3CCN(C)CC3)c3ccccc32)cc(OC)c1OC,0.031,5.56
Cc1ccccc1C(=O)NN1c2ccc(Cl)cc2N=C(N2CCN(C)CC2)c2cc(Cl)ccc21,0.002,0.175
CN1CCN(C2=Nc3cc(Cl)ccc3N(NC(=O)c3cccc(C(F)(F)F)c3)c3ccccc32)CC1,0.148,1.36
COc1cccc(C(=O)NN2c3ccc(Cl)cc3N=C(N3CCN(C)CC3)c3cc(Cl)ccc32)c1,0.044,0.139
CN1CCN(C2=Nc3cc(Cl)ccc3N(NC(=O)c3ccncc3)c3ccccc32)CC1,0.086,28.4
CN1CCN(C2=Nc3cc(Cl)ccc3N(NC(=O)c3cccc(F)c3F)c3ccccc32)CC1,0.016,
FC1(F)Oc2cccc(CN3CCN(C4=Nc5cc(Cl)ccc5Nc5ccccc54)CC3)c2O1,3.11,0.008
Cc1ccccc1C(=O)NN1c2ccccc2N=C(N2CCN(C)CC2)c2cc(Cl)ccc21,0.048,1.57
CC(C)(C)CN1CCN(C2=Nc3cc(Cl)ccc3N(NC(=O)c3ccccc3Cl)c3ccccc32)CC1,0.447,> 3
Cc1ccc(CN2CCN(C3=Nc4cc(Cl)ccc4N(NC(=O)c4ccccc4Cl)c4ccccc43)CC2)c(C)c1,1.1,> 3
CN1CCN(C2=Nc3cc(Cl)ccc3N(NC(=O)c3ccc(F)cc3C(F)(F)F)c3ccccc32)CC1,0.049,1.62
